Results as given in paper PMC6028453, “BrlR from Pseudomonas aeruginosa is a receptor for both cyclic di-GMP and pyocyanin” (Nature Communications, 2018).

Experiments:
[1] = target: T1, BrlR-C2E mut1 (R31A/D35A/Y40A/Y270A) (Pseudomonas aeruginosa, UniProt Q9HUT5, D35A/R31A/Y270A/Y40A); assay: FP binding assay, BrlR-C2E mut1
T1 construct: His6-SUMO (N, cleaved yes); made in house; host or cells: E. coli BL21 DE3
Method: (§1) F-c-di-GMP and F-c-di-AMP both contain a fluorophore at one of the 2′-ribose hydroxyls of c-di-GMP and c-di-AMP, respectively (Fig. 2f). To measure the binding of c-di-GMP and c-di-AMP to BrlR variants, 1 nM F-c-di-GMP or F-c-di-AMP was incubated with increasing amounts of indicated BrlR WT, BrlR mutation, or BrlR-C in reaction buffer (25 mM HEPES, 100 mM NaCl, pH 7.5) at 25 °C for 20 min. 1 nM fluorescein was incubated with BrlR WT in the same reaction buffer at 25 °C. FP measurements were conducted on a Synergy 4 Microplate Reader (BioTek) at 25 °C. All experiments were performed in triplicate. The curves were fitted to deduce binding affinities by GraphPad Prism 5.
(§2) BrlR–c-di-GMPs interactions in two separate c-di-GMP binding sites
(§3) In the first binding site, c-di-GMP is half accommodated by the antiparallel β-sheet and two residues (M1 and D35). In detail, the backbone amide protons of the first M1 residue form a hydrogen bond (H-bond) with the phosphate oxygen atom of c-di-GMP, and the side chain of R31 forms two H-bonds with the Gua1 base. The residue D35 also forms an H-bond with the Gua1 base. The aromatic ring of Y40 interacts with the Gua1 base through a hydrophobic π-π interaction. In addition, the hydroxyl group of the Y270 side chain from another subunit interacts with the phosphate 2 of c-di-GMP via an H-bond (Fig. 2d). […]

BrlR [2] = target: T2, BrlR (Pseudomonas aeruginosa, UniProt Q9HUT5); assay: Fluorescence polarization (FP) binding assay, wild-type BrlR; conditions: 1 nM fluorescent ligand, 25 °C
T2 construct: His6-SUMO (N, cleaved yes); made in house; host or cells: E. coli BL21 DE3
From the text: The most striking feature of the BrlR–c-di-GMP complex is the c-di-GMP-binding mode. The DNA-binding domain contains two separate c-di-GMP-binding sites, and shares a mutually intercalated c-di-GMP dimer in a stacking conformation with a crystallographic symmetry related binding site (Fig. 2a–c). […] The interactions stabilizing the c-di-GMPs are different for the two binding sites (Fig. 2d, e, and details are described in Supplementary Note 1). […] This structural feature allows us to perform fluorescence polarization (FP)-based binding assays[19],[23],[24] by using a fluoresceinated c-di-GMP analog, 2′-Fluo-AHC-c-di-GMP (F-c-di-GMP), containing a fluorophore attached to one of the 2′-ribose hydroxyls (Fig. 2f).
as §1

[3] = target: T3, BrlR-C2E mut2 (R67A/R86A) (Pseudomonas aeruginosa, UniProt Q9HUT5, R67A/R86A); assay: FP binding assay, BrlR-C2E mut2
T3 construct: His6-SUMO (N, cleaved yes); made in house; host or cells: E. coli BL21 DE3
Method: as §1, §2, §3

BrlR-C domain = target: T4, BrlR-C domain (Pseudomonas aeruginosa, UniProt Q9HUT5); assay: Native gel staining with EB; format: binding
T4 construct: His6 (cleaved yes); made in house; host or cells: E. coli (same protocol as BrlR, induction at 18 °C)
From the text: Fig. 5 The BrlR-C domain can bind to diverse toxic compounds with two adjacent binding pockets. a Structural superpositions of BrlR-C and RH6G-bound SAV2435 (PDB code: 5KAU). The residues in contact with the ligand are shown as stick models and are labeled. Electron density (2Fo - Fc map) for imidazole (blue mesh) binding to the BrlR–c-di-GMP complex is contoured at the 1σ level. b The chemical structures of toxic compounds. c FP analyses of the fluorescein binding to BrlR. The binding curves were fit to deduce the binding affinities. d Two μg of BrlR variants were run on the native gel and stained with EB; the scan results are shown in the upper panel. The proteins were visualized by staining with Coomassie blue in the lower panel. e SPR sensorgram and the resulting affinity fit for pyocyanin binding to BrlR. The ligand binding and dissociation phases for all sensorgrams are shown in the upper panel. The concentrations of a pyocyanin are indicated. The binding responses were measured for 4 s before the end of the injection, and the KD values were calculated using the BIAevaluation software in the lower panel. f The monomeric structure of BrlR-C-3A2P complex. 3A2P, PEG and the conserved residues are shown in stick mode. […]
of multidrug inducers in their C-terminal multidrug-binding domains1-3. […]
However, much more dimers than tetramers were detected (Supplementary Fig. 13a). […]

BrlR-C = target: T5, BrlR-C (Pseudomonas aeruginosa, UniProt Q9HUT5); assay: FP competition experiment, BrlR-C; format: binding; conditions: 550 μM BrlR-C, 1 nM F-c-di-GMP
T5 construct: His6 (cleaved yes); made in house; host or cells: E. coli (same protocol as BrlR, induction at 18 °C)
Method: Supplementary Figure 11: FP analyses of F-c-di-GMP binding to BrlR-C. (a) Isotherms of BrlR-C binding to F-c-di-GMP. The binding experiment was carried out at 25 °C in a buffer containing 150 mM NaCl, 25 mM Tris·HCl (pH 7.5), and 1 nM F-c-di-GMP. Increasing concentrations of BrlR-C were titrated into the reaction mixture to obtain the binding isotherms. (b) Fluorescence polarization competition experiment of BrlR-C. As a control, 550 μM BrlR-C was added to the reaction tube containing 1 nM F-c-di-GMP, and different competitors were respectively added in the solution and the values of millipolarization were recorded.
(1 picture or pasted object on this page, not shown here)

BrlR [4] = target: T2, BrlR; conditions: ref 1 (Chambers et al., 2014) of response letter; cited from earlier work
BrlR C2E mut1 = target: T6, BrlR C2E mut1 (UniProt Q9HUT5 1-270, R31A;D35A;Y40A;Y270A); assay: EMSA; c-di-GMP (increased); conditions: protein: recombinant; tags: none (His6-SUMO removed); chain copies: 2; label: 5' FAM on strand 1; blunt
T6 sequence: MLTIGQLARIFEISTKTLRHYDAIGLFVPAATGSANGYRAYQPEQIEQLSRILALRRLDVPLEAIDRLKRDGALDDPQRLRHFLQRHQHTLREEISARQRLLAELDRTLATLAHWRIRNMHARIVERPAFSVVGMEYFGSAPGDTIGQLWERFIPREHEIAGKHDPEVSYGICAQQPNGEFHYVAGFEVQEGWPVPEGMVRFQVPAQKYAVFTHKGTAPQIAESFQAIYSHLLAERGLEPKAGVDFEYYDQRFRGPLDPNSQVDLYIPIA

BrlR C2E mut2 = target: T7, BrlR C2E mut2 (UniProt Q9HUT5 1-270, R67A;R86A); assay: EMSA; c-di-GMP (increased); conditions: protein: recombinant; tags: none (His6-SUMO removed); chain copies: 2; label: 5' FAM on strand 1; blunt
T7 sequence: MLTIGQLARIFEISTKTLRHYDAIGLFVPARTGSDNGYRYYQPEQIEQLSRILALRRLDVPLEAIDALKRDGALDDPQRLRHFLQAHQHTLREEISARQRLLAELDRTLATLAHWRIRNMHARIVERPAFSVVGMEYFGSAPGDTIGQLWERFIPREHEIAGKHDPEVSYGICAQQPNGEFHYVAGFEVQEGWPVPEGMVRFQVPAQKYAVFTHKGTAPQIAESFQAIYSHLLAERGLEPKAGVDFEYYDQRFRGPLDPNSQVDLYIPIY

BrlR [5] = target: T8, BrlR (UniProt Q9HUT5 1-270); assay: EMSA; conditions: protein: recombinant; tags: none (His6-SUMO removed); chain copies: 4; label: 5' FAM on strand 1; blunt
T8 sequence: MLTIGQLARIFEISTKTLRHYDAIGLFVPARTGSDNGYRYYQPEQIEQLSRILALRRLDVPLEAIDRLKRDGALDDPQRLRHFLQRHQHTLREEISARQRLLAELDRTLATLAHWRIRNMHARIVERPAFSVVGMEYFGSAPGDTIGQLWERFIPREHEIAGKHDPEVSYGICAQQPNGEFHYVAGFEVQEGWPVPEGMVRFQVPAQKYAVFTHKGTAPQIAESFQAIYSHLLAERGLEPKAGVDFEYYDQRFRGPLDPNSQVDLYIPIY

Question: Which Kd [1] does the source give for 2′-fluo-AHC-c-di-AMP [F-c-di-AMP] here?
Answer: 63.7 ± 5.1 µM

Question: And the Kd (BrlR [2])?
Answer: 12.9 ± 0.7 µM

Question: And the Kd (BrlR [2]; listed as 2′-fluo-AHC-c-di-AMP)?
Answer: 12.9 ± 0.65 µM

Question: What about the Kd [3] of the same molecule?
Answer: 10.3 ± 0.2 µM

Question: With `CC[n+]1c(-c2ccccc2)c2cc(N)ccc2c2ccc(N)cc21` [EB, ethidium bromide] as the molecule, how does the “staining of protein in native gel” value (BrlR-C domain) read?
Answer: readily stained

Question: And the “competition with F-c-di-GMP binding to BrlR-C” value (BrlR-C)?
Answer: outcompeted

Question: Which “effect on binding of c-di-GMP to BrlR” value (BrlR [4]) does the source give for `Nc1nc2c(ncn2[C@@H]2O[C@H](COP(=O)(O)OP(=O)(O)OP(=O)(O)O)[C@@H](O)[C@H]2O)c(=O)[nH]1` [GTP] here?
Answer: not affected

B1: PbrlR 36-bp (dsDNA)
DNA 1: ACCCCTTGACCTTGCCCCAGGGGCAATCCGTAGTCT
DNA 2: AGACTACGGATTGCCCCTGGGGCAAGGTCAAGGGGT
Question: Which results are given for B1?
Answer: binding result (BrlR C2E mut1): binds; binding result (BrlR C2E mut2): binds; binding result (BrlR [5]): binds
